The results in this text go back to US5756510A, “Benzamide analogs useful as PARP (ADP-ribosyltransferase, ADPRT) DNA repair enzyme inhibitors” (Newcastle University Ventures Limited, priority 1994, dated 1998).

Data set [1] concerns L1210 cells. Kind of data set: clonogenic survival assay with temozolomide (TM). The note with it: for DEF10 (TM): 16 hours, ± S.E. Here is the method: (§1) Again using cultures of the murine leukaemia L1210 cell line, growth inhibition experiments were carried out to assess the cytostatic effects of the compounds and clonogenic survival assays were performed to assess cytotoxicity, especially in relation to use of the compounds in conjunction with DNA damaging cytotoxic agents such as cytotoxic antitumour drugs or high energy radiation.
After 7-10 days colonies were stained with 0.5 mg/ml MTT and counted by eye on a gridded light box. Survival curves were plotted and typical DEF10 values obtained are hereinafter given in Table II (DEF10 being defined as the ratio of the concentration of TM that reduces survival to 10% divided by the concentration of TM that reduces survival to 10% in the presence of a fixed concentration of PARP inhibitor). Each DEF10 value in Table II represents the average ratio±S.E. (standard error) derived from the averaged 10% survival for TM alone (675±31 μM from 22 independent survival curves) divided by individual 10% survival values from at least 3 independent survival curves performed in the presence of a fixed concentration of inhibitor.
For NU1025 maximal potentiation of cytotoxicity was obtained by a concentration in the range of 50-100 μM, and was significant at doses as low as 10 μM.

For data set [2], the system named is L1210 cells. Briefly: growth inhibition assay, alone or with temozolomide. Type of data set: cell-based, murine. As to conditions: Mus musculus, L1210, 48 h. Here is the method: as §1
At this time one set of replicates would be counted using a Coulter counter (N0), and 48 hours later the remaining samples would be counted (N1). The percentage (%) growth inhibition of drug-treated samples could then be estimated. In drug combination experiments, where evidence of synergistic effects on cell growth or clonogenicity was being sought, a single, fixed concentration of a cytotoxic drug sample, e.g. temozolomide, would be taken as the control value.

Data set [3] in a line: half life of temozolomide in culture. In kind it is physicochemical.
For data set [4], the system named is DNA strand breaks in L1210 cells. Briefly: DNA strand break assay (alkaline elution). The note with it: for effect on DNA strand break levels, compound alone: 24 hour incubation. In kind it is cell-based, murine. On the procedure:
as §1
All the compounds were tested for their ability to produce strand breaks when used alone.

Another data set in a line: in vitro. The note with it: mouse, l1210 cells. On the procedure: as §1
Data set [5] relates to L1210 cells. Briefly: repair of potentially lethal damage (PLD) after gamma ray irradiation. In kind it is cell-based, murine. As to conditions: 8 Gray gamma ray; 10 mM 3AB or 200 μM NU1025. On the procedure:
Repair of potentially lethal damage (PLD) occurs when cells are held in stationary-phase following initiation of PLD prior to allowing cell division to take place. In further typical experiments, L1210 cells were allowed to repair gamma ray PLD in the presence or absence of 3AB or NU1025 as follows. L1210 cells were maintained in culture until they had attained stationary phase (>10^6 cells/ml). They were diluted to […] in conditioned medium from stationary-phase cultures to prevent further cell division. Replicate 2 ml samples of cells in plastic bijoux were held on ice prior to and immediately following 8 Gray gamma ray irradiation. 1 ml of 3x final concentration of compounds 3AB or NU1025 made up in conditioned medium from stationary cultures was added (to give final concentrations of 10^6 cells/ml in 1% DMSO ±10 mM 3AB or 200 μM NU1025) and the cells were incubated at 37° C. for 0, 2 or 4 hours prior to resuspending in drug-free medium and seeding for colony formation. Unirradiated stationary phase cultures incubated at 37° C. for 0, 2 or 4 hours with 1% DMSO ±10 mM 3AB or 200 μM NU1025 were used as appropriate controls for determining relative cell survival. In the absence of PARP inhibitor cell survival increased with time allowed for PLD repair to take place. […]

The next data set concerns the target T1, PARP (Mus musculus, UniProt P11103).
T1 construct: endogenous in cells; host or cells: L1210 murine leukaemia cells, permeabilised by hypotonic buffer and cold shock
Briefly: PARP inhibition assay ([32P]-NAD incorporation into TCA-precipitated poly(ADP-ribose) in permeabilised L1210 cells, oligonucleotide activated). Type of data set: biochemical, L1210 murine leukaemia cells. As to conditions: read-out: % Inhibition (PARP). The source says: In principle, the PARP assay used relies upon activating endogenous PARP (as hereinafter described) in cells containing exogenous [^32 P]-NAD^+ introduced therein by suspending the cells in a solution of [^32 P]-NAD^+ to which they have been rendered permeable in an initial pretreatment step. The poly(ADP-ribose) which is then synthesised by the enzyme can be precipitated by trichloracetic acid (TCA) and the amount of radio-labelled ^32 p incorporated therein measured, e.g. using a scintillation counter, to give a measure of the activity of the PARP under the particular conditions of the experiment. By repeating the experiment following the same procedure, and under the same conditions, in the presence of each compound to be tested the reduction in enzyme activity, representative of the inhibitory effect of the test compound, can then be ascertained from the reduction, if any, of the amount of [^32 P] measured in the TCA precipitated poly(ADP-ribose).
Thus, with a range of different compounds a set of comparative values for inhibitory activity can be obtained.
In practice, L1210 murine leukaemia cells were used as the source of the PARP enzyme after being rendered permeable to exogenous [^32 P]NAD by exposure to hypotonic buffer and cold shock. […] This oligonucleotide sequence snaps back on itself to form a double-stranded molecule with a single blunt end and provides an effective substrate for activation of PARP.
The experimental protocol adopted, in which a synthetic oligonucleotide as mentioned above is introduced as a specific activator of PARP, discriminates between PARP and other mono-ADP-ribosyltransferases in the cells.
The oligonucleotide having the palindromic sequence […], synthesised by conventional means, was vacuum dried and stored as pellets in a freezer. Before use, it was made up to 200 μg/ml in 10 mM Tris/HCl, pH 7.8, with each pellet being dissolved completely in […] of buffer. The solution was then heated to 60° C. in a water bath for 15 minutes, and allowed to cool slowly to ensure correct reannealing. After adding 9.5 ml of buffer, the concentration was checked by measuring the optical density of a diluted sample at 260 nm. The main solution was then diluted to a concentration of 200 μg/ml and stored in 500 μl aliquots in a freezer, ready for use.
The L1210 cells used as the source of the PARP enzyme were maintained as a suspension culture in RPMI medium+10% foetal bovine serum+glutamine and antibiotics (penicillin and streptomycin). HEPES and sodium bicarbonate were also added, and the cells were seeded in 100 ml of medium such that there would be a concentration of approximately 8×10^5 /ml at the time of carrying out an assay.
The solubility of the compound was then checked by adding a quantity of the DMSO solution to a quantity of the isotonic buffer, in the required final proportions that were to be used in carrying out the assay, and after an interval the solution was examined under a microscope for any signs of crystals forming.
A desired quantity of the cells, ascertained by counting with a haemocytometer, was then centrifuged (1500 rpm in a "Europa" model 24M centrifuge for 5 minutes), the supernatant removed, and the pellets obtained were resuspended in 20 ml Dul A at 4° C. before centrifuging again at 1500 rpm and 4° C. After again removing the supernatant, the cells were resuspended at a concentration of 3×10^7 cells/ml in ice cold hypotonic buffer and left for 30 minutes on ice. Nine volumes were then added of ice cold isotonic buffer, and the cells, now rendered permeable to exogenous NAD^+, were then used within the next hour for carrying out an assay.

[6] abbreviates: read-out: IC50 INHIBITOR + 100 μM TM (growth inhibition).
[7] abbreviates: read-out: IC50 INHIBITOR ALONE (growth inhibition).

Broadly, the half-life is how long it takes for the measured level to halve. What is called CC50 is the concentration giving 50% cytotoxicity. High values mean lower toxicity to the cells, low ones greater toxicity to the cells. The term inhibition denotes how much of the control response was suppressed.

Each structure is given as a SMILES string. Bounds are passed on as bounds.

T1 sequence (P11103 whole entry): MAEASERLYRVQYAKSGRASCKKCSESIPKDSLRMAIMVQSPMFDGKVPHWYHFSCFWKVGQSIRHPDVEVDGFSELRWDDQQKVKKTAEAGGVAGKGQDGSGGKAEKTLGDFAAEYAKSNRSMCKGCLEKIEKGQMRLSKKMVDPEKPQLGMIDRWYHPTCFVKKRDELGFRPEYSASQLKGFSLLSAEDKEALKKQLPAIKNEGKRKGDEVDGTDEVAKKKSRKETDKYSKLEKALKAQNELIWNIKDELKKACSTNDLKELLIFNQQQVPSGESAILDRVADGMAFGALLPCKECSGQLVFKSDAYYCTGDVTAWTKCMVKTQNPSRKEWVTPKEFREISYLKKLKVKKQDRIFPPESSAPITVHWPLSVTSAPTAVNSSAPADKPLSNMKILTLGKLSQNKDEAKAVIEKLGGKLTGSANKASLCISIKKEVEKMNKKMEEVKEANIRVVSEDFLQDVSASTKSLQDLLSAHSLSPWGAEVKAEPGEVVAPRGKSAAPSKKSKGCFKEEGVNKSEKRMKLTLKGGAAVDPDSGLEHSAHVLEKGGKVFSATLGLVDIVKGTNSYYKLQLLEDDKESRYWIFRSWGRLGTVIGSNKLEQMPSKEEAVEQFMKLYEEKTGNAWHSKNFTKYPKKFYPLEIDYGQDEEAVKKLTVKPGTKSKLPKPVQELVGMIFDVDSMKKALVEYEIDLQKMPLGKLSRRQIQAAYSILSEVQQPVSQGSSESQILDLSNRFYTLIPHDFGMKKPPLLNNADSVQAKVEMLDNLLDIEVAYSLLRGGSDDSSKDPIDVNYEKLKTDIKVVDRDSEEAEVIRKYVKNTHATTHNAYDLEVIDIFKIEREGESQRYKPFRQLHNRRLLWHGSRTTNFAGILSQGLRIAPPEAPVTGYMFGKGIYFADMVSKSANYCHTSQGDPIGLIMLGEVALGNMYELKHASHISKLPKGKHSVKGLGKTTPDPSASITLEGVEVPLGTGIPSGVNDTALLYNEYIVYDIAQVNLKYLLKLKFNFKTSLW

As to `Cn1nnc2c(C(N)=O)ncn2c1=O` [TM, temozolomide], the IC50 in the data set on L1210 cells [1] (Mus musculus, L1210, 16 h, read-out: LD50 of TM alone) came out at 251 ± 13 µM; in the data set with L1210 cells [2] (read-out: IC50 of TM alone (inhibition of cell growth)), 361 ± 25 µM. For the same molecule, the IC90 in the data set on L1210 cells [1] (Mus musculus, L1210, 16 h, read-out: concentration of TM alone that reduces survival to 10%) came out at 675 ± 31 µM. In addition, the cytotoxicity at 150 µM in the data set on L1210 cells [1] (Mus musculus, L1210, read-out: reduction of survival) was approximately 30%. The same molecule yielded a half-life in data set [3] of approximately 40 min. The minimal effective concentration in data set [4] (Mus musculus, L1210, 1 h, read-out: lowest TM level with detectable changes in DNA strand break levels) was determined as 150 µM. For the same molecule, in data set [4] (TM, 1 hour treatment), the “rate of elution (DNA strand breakage) in words” value was “concentration-dependent increase in the rate of elution”.
In the case of `NC(=O)c1cccc(N)c1` [3-aminobenzamide], the “DEF10 (TM)” value is on record as 2.4 ± 0.3 in the data set with L1210 cells [1] (1 mM inhibitor); 4.1 ± 0.4 in the data set on L1210 cells [1] (5 mM inhibitor); “about 4” in the data set with L1210 cells [1] (5 mM inhibitor, listed as 3AB). Moreover, in “in vitro”, it took 14000 ± 1000 µM to reach half-maximal cytotoxicity (CC50 at 24 h). The “effect on PLD repair in words” value in the data set with L1210 cells [5] is “blocked this repair”. Also, the IC50 in the data set with L1210 cells [2] (setting [6]) worked out at 2500 ± 100 µM; with L1210 cells [2] (setting [7]), 6700 ± 200 µM. For the same molecule, on PARP (10 μM), the inhibition at 10 µM is 36%. The inhibition at 30 µM at PARP (30 μM) was found to be 63%. Moreover, the inhibition at 100 µM on PARP (100 μM) amounted to 79%. Further, in data set [4] (150 μM TM, 1 hour), the “concentration above which strand breakage with TM increases significantly” value was more than 5 mM. The “effect on DNA strand break levels, compound alone” value in data set [4] (20 mM) is on record as “no significant effect on DNA strand break levels”.
As to `Cc1nc2c(O)cccc2c(=O)[nH]1` [NU1025, 8-Hydroxy-2-methylquinazolin-4-[3H]-one], the “DEF10 (TM)” value with L1210 cells [1] (10 μM inhibitor) came out at 2.0 ± 0.2; with L1210 cells [1] (100 μM inhibitor) it was 5.1 ± 0.7. The molecule also gave a CC50 at 24 h in the data set “in vitro” of 1600 ± 100 µM. Further, the “effect on PLD repair in words” value with L1210 cells [5] is reported as “blocked this repair”. For the same molecule, the IC50 is 40 µM in the data set with L1210 cells [2] (setting [6]) and 410 µM with L1210 cells [2] (setting [7]). In addition, in data set [4] (1 mM), the “effect on DNA strand break levels, compound alone” value is recorded as “no significant effect on DNA strand break levels”.
